From US9359452B2, “Isolation and characterisation of heparan sulphates and their use in pharmaceutical compositions, methods of treatment and stem cell culture media suitable for conditions associated with bone repair” (Agency for Science, Technology and Research, priority 2009, dated 2016)
Entries after “also recorded” stand apart in the source; their conditions may differ.

Legend:
[1] = tested on: Bovine aortic smooth muscle cells (BASMC); conditions: literature (Yang et al); cited from earlier work
[2] = tested on: human mesenchymal stem cells (hMSC); assay: hMSC proliferation, viable cell count in osteogenic medium; assay type: cell-based; conditions: data not shown
Experimental: (§1) FIG. 5. Effect of male and female liver HS on the growth of hMSC in maintenance and osteogenic medium. Cells were cultured for 7 days in normal maintenance medium in the presence of different concentrations (12.5 μg/ml or 1.25 μg/ml or 625 ng/ml or 312 ng/ml or 156 ng/ml) of male liver HS (A), and female liver HS (B). Cells were cultured for 7 days in osteogenic medium in the presence of different concentrations (12.5 μg/ml or 625 ng/ml or 312 ng/ml) of male liver HS (C), and female liver HS (D). Viable cell counts were determined at day 1, 3, 5 and 7. (E) The importance of FGFR signaling for HS activity was investigated by supplementing serum starved sub confluence cultures with male or female. HS (2.5 μg/ml) or FGF2 (2.5 ng/ml) in the presence or absence of an FGFR1 inhibitor (SU5402 at 20 μM) for 60 min. Total protein was extracted for Western blotting and first probed for activated ERK1/2 expression (pERK1/2). Membranes were then striped and reprobed with anti ERK1/2 antibody. (F) The amount of pERK1/2 protein was determined by densitometry. […]
(§2) Human mesenchymal stem cells (hMSCs) (Cambrex, USA) were plated in maintenance medium consisting of DMEM (1000 mg/L glucose), 10% fetal calf serum (FCS), 2 mM L-glutamine and 100 U/ml penicillin-streptomycin sulfate at 37° C. in a humidified atmosphere with 5% CO2. […] Proliferation of cells was assessed by Guava viacount on 1, 3, 5 and 7 day to determine the total viable cells. Cells were washed in PBS, pelleted with 0.125% trypsin, the trypsin neutralized, the pellet resuspended in 400 μl of PBS with the addition of 4 μl of Flex reagent, incubated for 10 min and cell number and viability determined utilizing the GUAVA Viacount software.
To assess the possibility of structural differences identified between the male and female liver HS to modulate hMSC proliferation, hMSCs were treated with varying concentration of HS and viable cell number was counted over a 7-day culture period in normal maintenance or differentiation (osteogenic) medium.

[3] = tested on: human mesenchymal stem cells (hMSC); assay: hMSC proliferation, viable cell count (GUAVA Viacount) in maintenance medium; assay type: cell-based; conditions: normal growth medium; data not shown
Experimental: as §2, with “CO2. To assess their proliferation, assays were performed to determine cell number utilizing the GUAVA PCA-96 System (GUAVA Technologies) as per the manufacturer's instructions. Briefly, cells were seeded at 3,000 cells/cm^2 in 48-well plates and allowed to adhere overnight.” for “CO2.”
Human mesenchymal stem cells (hMSCs) were plated in maintenance medium consisting of DMEM (1000 mg/L glucose), 10% fetal calf serum (FCS), 2 mM L-glutamine and 100 U/ml penicillin-streptomycin sulfate at 37° C. in a humidified atmosphere with 5% CO2. To assess their proliferation, assays were performed to determine cell number utilizing the GUAVA PCA-96 System (Millipore, USA) as per the manufacturer's instructions.
Briefly, cells were seeded at 3,000 cells/cm^2 in 48-well plates and allowed to adhere overnight. […] Proliferation of cells was assessed on days 1, 3, 5 and 7 to determine total viable cells. Cells were washed in PBS, pelleted with 0.125% trypsin, the trypsin neutralized, the pellet resuspended in 400 μl of PBS with the addition of 4 μl of Flex reagent, incubated for 10 min and cell number and viability determined utilizing the GUAVA Viacount software.

hMSCs = assay: hMSC proliferation with or without FGFR1 inhibitor SU5402, 5 days; assay type: cell-based, human
ERK1/2 = ERK1/2 phosphorylation in serum-starved hMSC (Western blot); assay type: cell-based, human; conditions: SU5402 at 20 μM, 60 min, with male or female HS 2.5 μg/ml
Experimental: as §1
MSCs were seeded in designated media at 5,000/cm^2 in six-well plates and cultured until subconfluent. […] Protein content was determined using a Protein Assay Kit (Bio-Rad) following the manufacturer's instructions. […]

Molecule: N-desulfated heparin
- effect on BASMC mineralization [1]: no inhibition; also recorded: no inhibitory activity

Molecule: 6-de-O-sulfated heparin
- effect on hMSC proliferation [2]: no effect; also recorded: neither de-N-sulfated, 2-de-O-sulfated nor 6-de-O-sulfated heparin had any effect
- hMSC proliferation compared to 10% serum [3]: less effect on proliferation

Molecule: 2-de-O-sulfated heparin
- effect on hMSC proliferation [2]: no effect; also recorded: neither de-N-sulfated, 2-de-O-sulfated nor 6-de-O-sulfated heparin had any effect
- hMSC proliferation compared to 10% serum [3]: less effect on proliferation

Molecule: FGF2
- effect on hMSC proliferation (hMSCs; FGF2 2.5 ng/ml): induced proliferation

Molecule: de-N-sulfated heparin
- effect on hMSC proliferation [2]: no effect; also recorded: neither de-N-sulfated, 2-de-O-sulfated nor 6-de-O-sulfated heparin had any effect
- hMSC proliferation compared to 10% serum [3]: does not increase hMSC proliferation; also recorded: failed to improve hMSC proliferation

Molecule: heparin [highly sulfated heparin]
- effect on BASMC mineralization [1]: inhibited

Molecule: Cc1c[nH]c(/C=C2\C(=O)Nc3ccccc32)c1CCC(=O)O [SU5402]
- effect on basal growth of hMSCs (hMSCs; SU5402 at 20 μM): inhibitory effect
- effect on HS and FGF2 induced proliferation (hMSCs; SU5402 at 20 μM, male HS 2.5 μg/ml or FGF2 2.5 ng/ml): preventing HS and FGF2 induced proliferation
- effect on liver HS-stimulated ERK1/2 phosphorylation (ERK1/2): blocked

Molecule: dermatan sulfate
- effect on BASMC mineralization [1]: no inhibition; also recorded: no inhibitory activity
